According to paper PMC11033320, “Activation of p53 signaling and regression of breast and prostate carcinoma cells by spirooxindole-benzimidazole small molecules” (Frontiers in Pharmacology, 2024):

Columns and labels:
SNB-75 = assay: NCI anticancer screening, CNS Cancer SNB-75; type: cell-based; details: Homo sapiens; SNB-75, 10 μM; read-out: % Growth Inhibition (GI %)
Description: (§1) The compound has been processed according to standard method NCI-60 Human Tumor Cell Lines Screen for organic compound at development therapeutic program (DTP). Requests for access to this national resource can be submitted online at: […]

MCF7 = assay: NCI anticancer screening, Breast Cancer MCF7; type: cell-based; details: Homo sapiens; MCF7, 10 μM; read-out: % Growth Inhibition (GI %)
Description: as §1

HS 578T = assay: NCI anticancer screening, Breast Cancer HS 578T; type: cell-based; details: Homo sapiens, read-out: % Growth Inhibition (GI %)
Description: as §1

NCI-H460 = assay: NCI anticancer screening, Non-Small Cell Lung Cancer NCI-H460; type: cell-based; details: Homo sapiens; NCI-H460, 10 μM; read-out: % Growth Inhibition (GI %)
Description: as §1

LOX IMVI = assay: NCI anticancer screening, Melanoma LOX IMVI; type: cell-based; details: Homo sapiens, read-out: % Growth Inhibition (GI %)
Description: as §1

NCI-H322M = assay: NCI anticancer screening, Non-Small Cell Lung Cancer NCI-H322M; type: cell-based; details: Homo sapiens, read-out: % Growth Inhibition (GI %)
Description: as §1

EKVX = assay: NCI anticancer screening, Non-Small Cell Lung Cancer EKVX; type: cell-based; details: Homo sapiens, read-out: % Growth Inhibition (GI %)
Description: as §1

M14 = assay: NCI anticancer screening, Melanoma M14; type: cell-based; details: Homo sapiens; M14, 10 μM; read-out: % Growth Inhibition (GI %)
Description: as §1

SF-539 = assay: NCI anticancer screening, CNS Cancer SF-539; type: cell-based; details: Homo sapiens; SF-539, 10 μM; read-out: % Growth Inhibition (GI %)
Description: as §1

BT-549 = assay: NCI anticancer screening, Breast Cancer BT-549; type: cell-based; details: Homo sapiens; BT-549, 10 μM; read-out: % Growth Inhibition (GI %)
Description: as §1

MDA-MB-468 = assay: NCI anticancer screening, Breast Cancer MDA-MB-468; type: cell-based; details: Homo sapiens, read-out: % Growth Inhibition (GI %)
Description: as §1

SR = assay: NCI anticancer screening, Leukemia SR; type: cell-based; details: Homo sapiens, read-out: % Growth Inhibition (GI %)
Description: as §1

MDA-MB-435 = assay: NCI anticancer screening, Melanoma MDA-MB-435; type: cell-based; details: Homo sapiens; MDA-MB-435, 10 μM; read-out: % Growth Inhibition (GI %)
Description: as §1

NCI/ADR-RES = assay: NCI anticancer screening, Ovarian Cancer NCI/ADR-RES; type: cell-based; details: Homo sapiens, read-out: % Growth Inhibition (GI %)
Description: as §1

UO-31 = assay: NCI anticancer screening, Renal Cancer UO-31; type: cell-based; details: Homo sapiens; UO-31, 10 μM; read-out: % Growth Inhibition (GI %)
Description: as §1

MDA-MB 231 cells = details: for inhibition: 5 µM
HCT-15 = assay: NCI anticancer screening, Colon Cancer HCT-15; type: cell-based; details: Homo sapiens; HCT-15, 10 μM; read-out: % Growth Inhibition (GI %)
Description: as §1

KM12 = assay: NCI anticancer screening, Colon Cancer KM12; type: cell-based; details: Homo sapiens; KM12, 10 μM; read-out: % Growth Inhibition (GI %)
Description: as §1

SW-620 = assay: NCI anticancer screening, Colon Cancer SW-620; type: cell-based; details: Homo sapiens; SW-620, 10 μM; read-out: % Growth Inhibition (GI %)
Description: as §1

SK-MEL-5 = assay: NCI anticancer screening, Melanoma SK-MEL-5; type: cell-based; details: Homo sapiens; SK-MEL-5, 10 μM; read-out: % Growth Inhibition (GI %)
Description: as §1

SF-268 = assay: NCI anticancer screening, CNS Cancer SF-268; type: cell-based; details: Homo sapiens; SF-268, 10 μM; read-out: % Growth Inhibition (GI %)
Description: as §1

HCT-116 = assay: NCI anticancer screening, Colon Cancer HCT-116; type: cell-based; details: Homo sapiens; HCT-116, 10 μM; read-out: % Growth Inhibition (GI %)
Description: as §1

CCRF-CEM = assay: NCI anticancer screening, Leukemia CCRF-CEM; type: cell-based; details: Homo sapiens, read-out: % Growth Inhibition (GI %)
Description: as §1

OVCAR-4 = assay: NCI anticancer screening, Ovarian Cancer OVCAR-4; type: cell-based; details: Homo sapiens; OVCAR-4, 10 μM; read-out: % Growth Inhibition (GI %)
Description: as §1

OVCAR-8 = assay: NCI anticancer screening, Ovarian Cancer OVCAR-8; type: cell-based; details: Homo sapiens; OVCAR-8, 10 μM; read-out: % Growth Inhibition (GI %)
Description: as §1

SN12C = assay: NCI anticancer screening, Renal Cancer SN12C; type: cell-based; details: Homo sapiens, read-out: % Growth Inhibition (GI %)
Description: as §1

U251 = assay: NCI anticancer screening, CNS Cancer U251; type: cell-based; details: Homo sapiens, U-251; U251, 10 μM; read-out: % Growth Inhibition (GI %)
Description: as §1

SF-295 = assay: NCI anticancer screening, CNS Cancer SF-295; type: cell-based; details: Homo sapiens; SF-295, 10 μM; read-out: % Growth Inhibition (GI %)
Description: as §1

HOP-92 = assay: NCI anticancer screening, Non-Small Cell Lung Cancer HOP-92; type: cell-based; details: Homo sapiens; HOP-92, 10 μM; read-out: % Growth Inhibition (GI %)
Description: as §1

NCI-H23 = assay: NCI anticancer screening, Non-Small Cell Lung Cancer NCI-H23; type: cell-based; details: Homo sapiens; NCI-H23, 10 μM; read-out: % Growth Inhibition (GI %)
Description: as §1

K-562 = assay: NCI anticancer screening, Leukemia K-562; type: cell-based; details: Homo sapiens, K562; K-562, 10 μM; read-out: % Growth Inhibition (GI %)
Description: as §1

TK-10 = assay: NCI anticancer screening, Renal Cancer TK-10; type: cell-based; details: Homo sapiens; TK-10, 10 μM; read-out: % Growth Inhibition (GI %)
Description: as §1

T-47D = assay: NCI anticancer screening, Breast Cancer T-47D; type: cell-based; details: Homo sapiens, T47D, read-out: % Growth Inhibition (GI %)
Description: as §1

SNB-19 = assay: NCI anticancer screening, CNS Cancer SNB-19; type: cell-based; details: Homo sapiens; SNB-19, 10 μM; read-out: % Growth Inhibition (GI %)
Description: as §1

OVCAR-5 = assay: NCI anticancer screening, Ovarian Cancer OVCAR-5; type: cell-based; details: Homo sapiens; OVCAR-5, 10 μM; read-out: % Growth Inhibition (GI %)
Description: as §1

SK-MEL-2 = assay: NCI anticancer screening, Melanoma SK-MEL-2; type: cell-based; details: Homo sapiens; SK-MEL-2, 10 μM; read-out: % Growth Inhibition (GI %)
Description: as §1

## O=C(c1nc2ccccc2[nH]1)[C@H]1[C@H](c2ccc(C(F)(F)F)cc2)C2CSCN2[C@]12C(=O)Nc1ccccc12 (stereo partly drawn) [Compound 6c, (3S,6′R)-6'-(1H-Benzo [d]imidazole-2-carbonyl)-7'-(4-(trifluoromethyl)phenyl)-3′,6′,7′,7a′-tetrahydro-1′H-spiro [indoline-3.5′-pyrrolo [1,2-c]thiazol]-2-one]
SNB-75
  inhibition at 10 µM: 72.9%
MCF7
  inhibition at 10 µM: 77.7%
HS 578T
  inhibition at 10 µM: 83.9%
NCI-H460
  inhibition at 10 µM: 66.8%
LOX IMVI
  inhibition at 10 µM: 88.7%
NCI-H322M
  inhibition at 10 µM: 91.1%
EKVX
  inhibition at 10 µM: 87%
M14
  inhibition at 10 µM: 83.3%
SF-539
  inhibition at 10 µM: 91.6%
BT-549
  inhibition at 10 µM: 107%
MDA-MB-468
  inhibition at 10 µM: 91.6%
SR
  inhibition at 10 µM: 85.6%
other
  melting point: 185 to 187 °C
MDA-MB-435
  inhibition at 10 µM: 88.3%
NCI/ADR-RES
  inhibition at 10 µM: 86%
UO-31
  inhibition at 10 µM: 55.4%
MDA-MB 231 cells
  IC50: 3.34 ± 0.21 µM
  inhibition: 55.5 ± 2.5%
HCT-15
  inhibition at 10 µM: 88.9%
KM12
  inhibition at 10 µM: 71.8%
SW-620
  inhibition at 10 µM: 84.1%
SK-MEL-5
  inhibition at 10 µM: 94.2%
SF-268
  inhibition at 10 µM: 90.2%
HCT-116
  inhibition at 10 µM: 60%
CCRF-CEM
  inhibition at 10 µM: 95%
OVCAR-4
  inhibition at 10 µM: 80.9%
OVCAR-8
  inhibition at 10 µM: 98.8%
SN12C
  inhibition at 10 µM: 90.7%
U251
  inhibition at 10 µM: 93.2%
SF-295
  inhibition at 10 µM: 95.3%
HOP-92
  inhibition at 10 µM: 109%
NCI-H23
  inhibition at 10 µM: 82.3%
K-562
  inhibition at 10 µM: 83.1%
TK-10
  inhibition at 10 µM: 120%
T-47D
  inhibition at 10 µM: 69.7%
SNB-19
  inhibition at 10 µM: 84.9%
OVCAR-5
  inhibition at 10 µM: 96.1%
SK-MEL-2
  inhibition at 10 µM: 108%

## O=C(c1nc2ccccc2[nH]1)[C@H]1[C@H](c2ccc(F)cc2)C2CSCN2[C@]12C(=O)Nc1ccccc12 (stereo partly drawn) [Compound 6f, (3S,6′R)-6'-(1H-Benzo [d]imidazole-2-carbonyl)-7'-(4-fluorophenyl)-3′,6′,7′,7a′-tetrahydro-1′H-spiro [indoline-3.5′-pyrrolo [1,2-c]thiazol]-2-one]
SNB-75
  inhibition at 10 µM: 89.8%
MCF7
  inhibition at 10 µM: 87.4%
HS 578T
  inhibition at 10 µM: 98%
NCI-H460
  inhibition at 10 µM: 88.9%
LOX IMVI
  inhibition at 10 µM: 94.8%
NCI-H322M
  inhibition at 10 µM: 90.4%
EKVX
  inhibition at 10 µM: 93.8%
M14
  inhibition at 10 µM: 94.5%
SF-539
  inhibition at 10 µM: 97.7%
BT-549
  inhibition at 10 µM: 97.4%
MDA-MB-468
  inhibition at 10 µM: 94.2%
SR
  inhibition at 10 µM: 81.3%
other
  melting point: 233 to 235 °C
MDA-MB-435
  inhibition at 10 µM: 94.6%
NCI/ADR-RES
  inhibition at 10 µM: 99.4%
UO-31
  inhibition at 10 µM: 77%
MDA-MB 231 cells
  IC50: 4.41 ± 0.448 µM
  inhibition: 44.9 ± 3.59%
HCT-15
  inhibition at 10 µM: 93.6%
KM12
  inhibition at 10 µM: 88.7%
SW-620
  inhibition at 10 µM: 91.1%
SK-MEL-5
  inhibition at 10 µM: 94.7%
SF-268
  inhibition at 10 µM: 96.3%
HCT-116
  inhibition at 10 µM: 92.9%
CCRF-CEM
  inhibition at 10 µM: 98.2%
OVCAR-4
  inhibition at 10 µM: 83.2%
OVCAR-8
  inhibition at 10 µM: 94.7%
SN12C
  inhibition at 10 µM: 91.1%
U251
  inhibition at 10 µM: 93.5%
SF-295
  inhibition at 10 µM: 77.9%
HOP-92
  inhibition at 10 µM: 112%
NCI-H23
  inhibition at 10 µM: 98%
K-562
  inhibition at 10 µM: 87.4%
TK-10
  inhibition at 10 µM: 101%
T-47D
  inhibition at 10 µM: 84.1%
SNB-19
  inhibition at 10 µM: 95.9%
OVCAR-5
  inhibition at 10 µM: 100%
SK-MEL-2
  inhibition at 10 µM: 102%
